Biological target: T1, Phormidium APC (allophycocyanin) (Phormidium rubidum, UniProt A0A078K1U6+A0A078K4M9)
T1 construct: gene apcA; native purification from the cyanobacterium; no tags; alpha 18064 Da and beta 18011 Da with chromophore; trimer of alpha-beta monomers (118 kDa); N-methylasparagine in beta; GenBank entries partial (alpha 9-161, beta 1-155), corrected in structure: alpha N10K, R49C, D145N, beta E35K
Assay: X-ray crystallography, […] A
Type: binding
Details: covalent; one chromophore on Cys-81 of alpha and one on Cys-81 of beta; alpha-chromophore site also lined by beta residues in the trimer; crystals pH 8.5, PEG 6000

C/C=C1/C(=C/c2[nH]c(/C=C3N=C(/C=C4\NC(=O)C(CC)=C4C)C(C)=C\3CCC(=O)O)c(CCC(=O)O)c2C)NC(=O)[C@@H]1C [phycocyanobilin]
X-ray crystallography, 2.51 A: One PCB chromophore is covalently bonded to the conserved Cys-81 of α-subunit (α-chromophore)

From PMC4414346, “Crystal Structure of Allophycocyanin from Marine Cyanobacterium Phormidium sp. A09DM” (PLoS ONE, 2015)
